Assay [1] relates to Myzus persicae. The assay can be described thus: Myzus persicae (green peach aphid) pea seedling root uptake test. Particulars: 144 h, read-out: control of Myzus persicae.
Assay [2] has as its system Myzus persicae. The assay is described as follows: Myzus persicae (green peach aphid) sunflower leaf disc spray test. Particulars: foliar, 144 h, read-out: control of Myzus persicae.
A further assay deals with Tetranychus urticae. The assay is described as follows: Tetranychus urticae (two-spotted spider mite) bean leaf disc spray test. Particulars: foliar, 192 h, read-out: control of Tetranychus urticae.

Our source for the pest or weed control values is patent US20100048699A1, “CHEMICAL COMPOUNDS” (SYNGENTA CROP PROTECTION, INC., priority 2006, published 2010).

`COC(=O)OCCNC(=S)NC1CCc2c(F)cccc21` (stereo not shown) [Compound 3.038, carbonic acid 2-[3(4-fluoro-indan-1-yl)-thioureido]-ethyl methylester]: the pest or weed control at 24 ppm in the assay on Myzus persicae [1] is no less than 80%. Moreover, the pest or weed control at 200 ppm with Myzus persicae [2] and in the assay with Tetranychus urticae was no less than 80% throughout.

With `O=C(OCCNC(=S)NC1CCc2c(F)cccc21)N1CCCCC1` (stereo not shown) [Compound 11.001], the pest or weed control at 200 ppm in the assay on Myzus persicae [2] and in the assay on Tetranychus urticae was no less than 80% each time.

Consider `O=C(OCCNC(=S)NC1CCc2c(F)cccc21)c1ccc(F)cc1` (stereo not shown) [Compound 11.003], for which the pest or weed control at 24 ppm in the assay with Myzus persicae [1] was no less than 80%. In addition, the pest or weed control at 200 ppm in the assay on Myzus persicae [2] and in the assay on Tetranychus urticae was no less than 80% throughout.

As to `N#Cc1ccc(C(=O)OCCNC(=S)NC2CCc3c(F)cccc32)cc1` (stereo not shown) [Compound 11.005], in the assay on Myzus persicae [1], the pest or weed control at 24 ppm is no less than 80%. Besides, the pest or weed control at 200 ppm in the assay with Myzus persicae [2] and in the assay with Tetranychus urticae was no less than 80% each time.

Consider `O=C(/C=C/c1ccccc1)OCCNC(=S)NC1CCc2c(F)cccc21` (stereo not shown) [Compound 11.006], for which, in the assay with Myzus persicae [1], the pest or weed control at 24 ppm was no less than 80%. Besides, the pest or weed control at 200 ppm in the assay on Myzus persicae [2] and in the assay on Tetranychus urticae was no less than 80% each time.

On to `COc1ccccc1C(=O)OCCNC(=S)NC1CCc2c(F)cccc21` (stereo not shown) [Compound 11.007], for which the pest or weed control at 24 ppm with Myzus persicae [1] was no less than 80%. The pest or weed control at 200 ppm with Myzus persicae [2] and in the assay with Tetranychus urticae was no less than 80% in each case.

On to `COc1ccc(C(=O)OCCNC(=S)NC2CCc3c(F)cccc32)cc1` (stereo not shown) [Compound 11.009], for which the pest or weed control at 24 ppm with Myzus persicae [1] is no less than 80%. The pest or weed control at 200 ppm with Myzus persicae [2] and with Tetranychus urticae was no less than 80% each time.

On to `O=C(OCCNC(=S)NC1CCc2c(F)cccc21)c1ccc(Cl)cc1` (stereo not shown) [Compound 11.010], for which the pest or weed control at 24 ppm in the assay with Myzus persicae [1] was no less than 80%. For the same compound, the pest or weed control at 200 ppm in the assay with Myzus persicae [2] and in the assay with Tetranychus urticae was no less than 80% in each case.

With `O=C(OCCNC(=S)NC1CCc2c(F)cccc21)c1cccc(Cl)c1` (stereo not shown) [Compound 11.011], the pest or weed control at 24 ppm in the assay on Myzus persicae [1] was no less than 80%. In addition, the pest or weed control at 200 ppm in the assay with Myzus persicae [2] and in the assay with Tetranychus urticae was no less than 80% throughout.

For the compound `O=C(OCCNC(=S)NC1CCc2c(F)cccc21)c1ccccc1Cl` (stereo not shown) [Compound 11.012], in the assay with Myzus persicae [1], the pest or weed control at 24 ppm is no less than 80%. Besides, the pest or weed control at 200 ppm in the assay on Myzus persicae [2] and in the assay on Tetranychus urticae was no less than 80% each time.

For `O=C(OCCNC(=S)NC1CCc2c(F)cccc21)c1cc(F)ccc1F` (stereo not shown) [Compound 11.013], in the assay on Myzus persicae [1], the pest or weed control at 24 ppm was no less than 80%. For the same compound, the pest or weed control at 200 ppm in the assay with Myzus persicae [2] and in the assay on Tetranychus urticae was no less than 80% throughout.

For `O=C(OCCNC(=S)NC1CCc2c(F)cccc21)c1ccc(F)cc1F` (stereo not shown) [Compound 11.014], the pest or weed control at 24 ppm in the assay on Myzus persicae [1] was no less than 80%. Also, the pest or weed control at 200 ppm in the assay with Myzus persicae [2] and with Tetranychus urticae was no less than 80% in each case.

In the case of `CN(C)c1ccc(C(=O)OCCNC(=S)NC2CCc3c(F)cccc32)cc1` (stereo not shown) [Compound 11.015], in the assay on Myzus persicae [2], the pest or weed control at 200 ppm is no less than 80%.

Turning to `COc1ccc(CC(=O)OCCNC(=S)NC2CCc3c(F)cccc32)cc1` (stereo not shown) [Compound 11.016], the pest or weed control at 24 ppm with Myzus persicae [1] was no less than 80%. Moreover, the pest or weed control at 200 ppm with Myzus persicae [2] and in the assay with Tetranychus urticae was no less than 80% in each case.

For the compound `O=C(Cc1ccc(Cl)cc1)OCCNC(=S)NC1CCc2c(F)cccc21` (stereo not shown) [Compound 11.018], the pest or weed control at 24 ppm with Myzus persicae [1] was no less than 80%. Further, the pest or weed control at 200 ppm in the assay with Myzus persicae [2] and with Tetranychus urticae was no less than 80% in each case.

For `O=C(OCCNC(=S)NC1CCc2c(F)cccc21)c1ccccc1C(F)(F)F` (stereo not shown) [Compound 11.023], in the assay on Myzus persicae [1], the pest or weed control at 24 ppm is no less than 80%. The pest or weed control at 200 ppm in the assay on Myzus persicae [2] and in the assay with Tetranychus urticae was no less than 80% each time.

In the case of `O=C(OCCNC(=S)NC1CCc2c(F)cccc21)c1ccc(C(F)(F)F)cc1` (stereo not shown) [Compound 11.024], in the assay on Myzus persicae [1], the pest or weed control at 24 ppm is no less than 80%. In addition, the pest or weed control at 200 ppm in the assay with Myzus persicae [2] and in the assay with Tetranychus urticae was no less than 80% throughout.

`O=C(/C=C/c1ccc([N+](=O)[O-])cc1)OCCNC(=S)NC1CCc2c(F)cccc21` (stereo not shown) [Compound 11.027]: the pest or weed control at 200 ppm in the assay with Myzus persicae [2] is no less than 80%.

As to `COc1ccc(CC(=O)OCCNC(=S)NC2CCc3c(F)cccc32)cc1OC` (stereo not shown) [Compound 11.028], in the assay with Myzus persicae [1], the pest or weed control at 24 ppm is no less than 80%. The pest or weed control at 200 ppm in the assay on Myzus persicae [2] and in the assay on Tetranychus urticae was no less than 80% throughout.

Turning to `O=C(OCCNC(=S)NC1CCc2c(F)cccc21)OCc1ccc([N+](=O)[O-])cc1` (stereo not shown) [Compound 11.030], the pest or weed control at 24 ppm in the assay on Myzus persicae [1] was no less than 80%. The pest or weed control at 200 ppm in the assay with Myzus persicae [2] and in the assay with Tetranychus urticae was no less than 80% each time.

As for `O=C(OCCNC(=S)NC1CCc2c(F)cccc21)c1cccc2c1OC(F)(F)O2` (stereo not shown) [Compound 11.031], the pest or weed control at 24 ppm in the assay with Myzus persicae [1] is no less than 80%. Besides, the pest or weed control at 200 ppm with Myzus persicae [2] is no less than 80%.

Consider `O=C(OCCNC(=S)NC1CCc2c(F)cccc21)c1ccc(F)cc1C(F)(F)F` (stereo not shown) [Compound 11.034], for which the pest or weed control at 24 ppm in the assay with Myzus persicae [1] is no less than 80%. In the assay on Myzus persicae [2], the pest or weed control at 200 ppm was no less than 80%.

Regarding `O=C(OCCNC(=S)NC1CCc2c(F)cccc21)c1ccc(F)c(C(F)(F)F)c1` (stereo not shown) [Compound 11.035], the pest or weed control at 24 ppm in the assay on Myzus persicae [1] was no less than 80%. Besides, the pest or weed control at 200 ppm in the assay with Myzus persicae [2] and in the assay on Tetranychus urticae was no less than 80% throughout.

As for `O=C(OCCNC(=S)NC1CCc2c(F)cccc21)N(c1ccccc1)c1ccccc1` (stereo not shown) [Compound 11.039], in the assay with Myzus persicae [2], the pest or weed control at 200 ppm was no less than 80%.

`CCCC(C(=O)OCCNC(=S)NC1CCc2c(F)cccc21)c1ccc(Cl)cc1Cl` (stereo not shown) [Compound 11.040]: the pest or weed control at 24 ppm with Myzus persicae [1] is no less than 80%. Moreover, the pest or weed control at 200 ppm in the assay with Myzus persicae [2] and in the assay with Tetranychus urticae was no less than 80% in each case.

Consider `O=C(OCc1ccccc1C(=O)OCCNC(=S)NC1CCc2c(F)cccc21)c1ccccc1` (stereo not shown) [Compound 11.041], for which the pest or weed control at 200 ppm with Myzus persicae [2] and with Tetranychus urticae was no less than 80% each time.

For `Cc1ccc(-n2c(=O)cc(C(F)(F)F)n(C)c2=O)cc1C(=O)OCCNC(=S)NC1CCc2c(F)cccc21` (stereo not shown) [Compound 11.043], the pest or weed control at 200 ppm in the assay on Myzus persicae [2] and in the assay with Tetranychus urticae was no less than 80% each time.

For the compound `Cc1cc(C(=O)OCCNC(=S)NC2CCc3c(F)cccc32)c(C(F)(F)F)o1` (stereo not shown) [Compound 11.044], the pest or weed control at 24 ppm in the assay on Myzus persicae [1] is no less than 80%. For the same compound, the pest or weed control at 200 ppm in the assay on Myzus persicae [2] and in the assay with Tetranychus urticae was no less than 80% in each case.

Turning to `Cc1oc(C(C)(C)C)cc1C(=O)OCCNC(=S)NC1CCc2c(F)cccc21` (stereo not shown) [Compound 11.045], in the assay on Myzus persicae [1], the pest or weed control at 24 ppm is no less than 80%. In the assay with Myzus persicae [2], the pest or weed control at 200 ppm was no less than 80%.

Take `Cc1c(S(=O)(=O)c2ccc(Cl)cc2)csc1C(=O)OCCNC(=S)NC1CCc2c(F)cccc21` (stereo not shown) [Compound 11.046]: the pest or weed control at 200 ppm in the assay with Myzus persicae [2] and in the assay on Tetranychus urticae was no less than 80% in each case.

As to `COc1cc(C(=O)OCCNC(=S)NC2CCc3c(F)cccc32)cc(Cl)n1` (stereo not shown) [Compound 11.047], the pest or weed control at 24 ppm in the assay with Myzus persicae [1] was no less than 80%. Further, the pest or weed control at 200 ppm in the assay on Myzus persicae [2] and in the assay on Tetranychus urticae was no less than 80% each time.

`O=C(/C=C/c1cccc(C(F)(F)F)c1)OCCNC(=S)NC1CCc2c(F)cccc21` (stereo not shown) [Compound 11.048]: the pest or weed control at 24 ppm in the assay with Myzus persicae [1] was no less than 80%. Besides, the pest or weed control at 200 ppm in the assay with Myzus persicae [2] and with Tetranychus urticae was no less than 80% throughout.

Take `O=C(OCCNC(=S)NC1CCc2c(F)cccc21)c1cncc(Br)c1` (stereo not shown) [Compound 11.049]: in the assay with Myzus persicae [1], the pest or weed control at 24 ppm was no less than 80%. Also, the pest or weed control at 200 ppm in the assay on Myzus persicae [2] is no less than 80%.

Take `CCC(Oc1ccccc1)C(=O)OCCNC(=S)NC1CCc2c(F)cccc21` (stereo not shown) [Compound 11.051]: in the assay on Myzus persicae [1], the pest or weed control at 24 ppm was no less than 80%. Also, the pest or weed control at 200 ppm in the assay with Myzus persicae [2] and in the assay on Tetranychus urticae was no less than 80% in each case.

Regarding `O=C(OCCNC(=S)NC1CCc2c(F)cccc21)c1cc(C(F)(F)F)ccc1F` (stereo not shown) [Compound 11.052], the pest or weed control at 200 ppm with Myzus persicae [2] and with Tetranychus urticae was no less than 80% throughout.

Turning to `C/C(=C\c1ccccc1)C(=O)OCCNC(=S)NC1CCc2c(F)cccc21` (stereo not shown) [Compound 11.053], the pest or weed control at 24 ppm with Myzus persicae [1] was no less than 80%. The pest or weed control at 200 ppm in the assay on Myzus persicae [2] and in the assay on Tetranychus urticae was no less than 80% in each case.

As to `O=C(OCCNC(=S)NC1CCc2c(F)cccc21)c1ccccc1I` (stereo not shown) [Compound 11.054], the pest or weed control at 24 ppm in the assay with Myzus persicae [1] was no less than 80%. For the same compound, the pest or weed control at 200 ppm in the assay with Myzus persicae [2] is no less than 80%.

In the case of `O=C(OCCNC(=S)NC1CCc2c(F)cccc21)C1Cc2ccccc2O1` (stereo not shown) [Compound 11.055], the pest or weed control at 24 ppm in the assay on Myzus persicae [1] was no less than 80%. For the same compound, the pest or weed control at 200 ppm with Myzus persicae [2] and in the assay on Tetranychus urticae was no less than 80% throughout.

Consider `O=C(OCCNC(=S)NC1CCc2c(F)cccc21)c1ccc(Cl)c([N+](=O)[O-])c1` (stereo not shown) [Compound 11.058], for which the pest or weed control at 24 ppm in the assay with Myzus persicae [1] was no less than 80%. Further, the pest or weed control at 200 ppm in the assay with Myzus persicae [2] and in the assay on Tetranychus urticae was no less than 80% in each case.

Consider `O=C(NCCOC(=O)c1cnn(-c2ccccc2)c1C(F)(F)F)NC1CCc2c(F)cccc21` (stereo not shown) [Compound 11.059], for which the pest or weed control at 24 ppm with Myzus persicae [1] was no less than 80%. The pest or weed control at 200 ppm in the assay with Myzus persicae [2] and in the assay with Tetranychus urticae was no less than 80% each time.

Regarding `O=C(OCCNC(=S)NC1CCc2c(F)cccc21)c1ccc(SC(F)(F)C(F)(F)F)cc1` (stereo not shown) [Compound 11.064], the pest or weed control at 200 ppm in the assay with Myzus persicae [2] and with Tetranychus urticae was no less than 80% in each case.

For the compound `Cc1ccsc1C(=O)OCCNC(=S)NC1CCc2c(F)cccc21` (stereo not shown) [Compound 11.067], the pest or weed control at 200 ppm in the assay with Myzus persicae [2] and with Tetranychus urticae was no less than 80% throughout.

As for `O=C(OCCNC(=S)NC1CCc2c(F)cccc21)c1cc(Cl)sc1Cl` (stereo not shown) [Compound 11.068], the pest or weed control at 200 ppm with Myzus persicae [2] and with Tetranychus urticae was no less than 80% each time.

Consider `Cc1nn(-c2ccccc2)nc1C(=O)OCCNC(=S)NC1CCc2c(F)cccc21` (stereo not shown) [Compound 11.072], for which the pest or weed control at 200 ppm with Myzus persicae [2] and in the assay on Tetranychus urticae was no less than 80% in each case.
